Calls of active or inactive are those of the source. No cut-off for these calls is given here.
Each compound was assayed against T1, Estrogen receptor (Homo sapiens) (UniProt P03372) (assay: Displacement of [3H]estradiol from ERalpha isolated from BL21 cells relative to estradiol at 25 degC).
T1 sequence (whole entry): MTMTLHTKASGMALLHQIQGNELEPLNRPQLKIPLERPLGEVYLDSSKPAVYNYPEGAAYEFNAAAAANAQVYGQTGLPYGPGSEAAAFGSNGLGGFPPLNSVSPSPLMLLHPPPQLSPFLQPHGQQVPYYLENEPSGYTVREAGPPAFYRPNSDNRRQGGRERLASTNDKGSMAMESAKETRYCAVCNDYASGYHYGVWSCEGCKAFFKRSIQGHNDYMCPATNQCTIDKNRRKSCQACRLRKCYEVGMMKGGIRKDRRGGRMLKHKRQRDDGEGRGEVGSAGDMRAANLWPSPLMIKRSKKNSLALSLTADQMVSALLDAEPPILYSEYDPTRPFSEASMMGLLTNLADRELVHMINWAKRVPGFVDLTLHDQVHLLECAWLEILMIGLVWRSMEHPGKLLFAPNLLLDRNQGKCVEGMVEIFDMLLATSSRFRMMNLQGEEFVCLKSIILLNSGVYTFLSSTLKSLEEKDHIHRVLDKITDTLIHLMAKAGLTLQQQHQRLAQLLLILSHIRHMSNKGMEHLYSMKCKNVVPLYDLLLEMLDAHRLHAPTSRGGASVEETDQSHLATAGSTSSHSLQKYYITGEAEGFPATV
Format: cell-free

| RBA | SMILES |
| --- | --- |
| 75 | C[C@]12CC[C@@H]3c4ccc(O)cc4CC[C@H]3[C@@H]1CC[C@@]2(O)/C=C/c1cccc(C(F)(F)F)c1 |
| 223 | C[C@]12CC[C@@H]3c4ccc(O)cc4CC[C@H]3[C@@H]1CC[C@@]2(O)/C=C/c1ccccc1C(F)(F)F |
| 8 | C[C@]12CC[C@@H]3c4ccc(O)cc4CC[C@H]3[C@@H]1CC[C@@]2(O)/C=C/c1ccc(C(F)(F)F)cc1 |

Second part, the compound before the results:

| SMILES | RBA |
| --- | --- |
| CO[C@H]1C[C@@]2(C)[C@@H](CC[C@@]2(O)/C=C/c2ccccc2)[C@@H]2CCc3cc(O)ccc3[C@H]21 | 15 |
| CO[C@H]1C[C@@]2(C)[C@@H](CC[C@@]2(O)/C=C/c2cccc(C(F)(F)F)c2)[C@@H]2CCc3cc(O)ccc3[C@H]21 | 65 |
| C[C@]12CC[C@@H]3c4ccc(O)cc4CC[C@H]3[C@@H]1CC[C@@]2(O)/C=C/c1ccccc1 | 18 |
| CO[C@H]1C[C@@]2(C)[C@@H](CC[C@@]2(O)/C=C/c2ccccc2C(F)(F)F)[C@@H]2CCc3cc(O)ccc3[C@H]21 | 212 |
| CO[C@H]1C[C@@]2(C)[C@@H](CC[C@@]2(O)/C=C/c2ccc(C(F)(F)F)cc2)[C@@H]2CCc3cc(O)ccc3[C@H]21 | 5 |

Organism: Rattus norvegicus
Assay: Estrogenic efficacy in rat by immature rat uterotrophic growth assay
Format: functional, organism-based

| SMILES | Activity |
| --- | --- |
| C[C@]12CC[C@@H]3c4ccc(O)cc4CC[C@H]3[C@@H]1CC[C@@]2(O)/C=C/c1ccccc1 | inactive |

From ChEMBL document CHEMBL1141399, “Synthesis and evaluation of isomeric (17alpha,20E)-11beta-methoxy-21-(trifluoromethylphenyl)-19-norpregna-1,3,5(10),20-tetraene-3,17beta-diols as ERalpha-hormone binding domain ligands: effect of the methoxy group on receptor binding and uterotrophic growth” (J Med Chem, 2007)
